A short description of experiment [1]: In vitro labelling of purified sfGFP150 proteins with tetrazine-dye conjugate 4a, time course and rate constant. The settings on record: restated in example 6. On the procedure:
FIG. 2C: Determining the rate constant for labelling of sfGFP-3 (10.6 sfGFP incorporating 3 at position 150), with 10 equivalents of 4a. 2 nmol of purified sfGFP-3, (10.6 μM in 20 mM Tris-HCl, 100 mM NaCl, 2 mM EDTA, pH 7.4) were incubated with 20 nmol of tetrazine-dye conjugate 4a (10 μl of a 2 mM solution in DMSO). At different time points 8 μl, aliquots were taken from the solution and quenched with a 700-fold excess of BCN and plunged into liquid nitrogen. Samples were mixed with NuPAGE LDS sample buffer supplemented with 5% β-mercaptoethanol, heated for 10 min to 90° C. and analyzed by 4-12% SDS page. The amounts of labelled proteins were quantified by scanning the fluorescent bands with a Typhoon Trio phosphoimager (GE Life Sciences). Bands were quantified with the ImageQuant™ TL software (GE Life Sciences) using rubber band background subtraction. The rate constant was determined by fitting the data to a single-exponential equation. The calculated observed rate k′ was divided by the concentration of 4a to obtain rate constant k for the reaction. Measurements were done in triplicate. All data processing was performed using Kaleidagraph software (Synergy Software, Reading, UK). […]

For another experiment, the target named is PylRS/tRNACUA pair (Methanosarcina mazei, UniProt Q8PWY1). As to the kind of experiment: Amber suppression of mCherry-TAG-EGFP-HA in HEK293 cells (western blot). Type of experiment: cell-based. Details: expressed in transfected cells; host or cells: HEK293 (ATCC CRL-1573). As to conditions: amber stop codon. On the procedure:
Anti-FLAG detected tagged PylRS. FIG. 8B: Specific labelling of mCh-TAG-EGFP-HA (immunoprecipitated from 10^6 cells) with 4a (20 μM in 50 μL PBS, 1 h, RT) confirms the incorporation of 3 into protein in HEK293 cells. FIG. 8C: SORT-M labelling of 3 that is statistically incorporated into newly synthesised proteins across the whole proteome of mammalian cells directed by six different PylRS/PyltRNAXXX (mutants using 0.5 mM 3. Labeling with 4g (20 μM in PBS, 1 h, RT, as above). The amino acids in parentheses are the natural amino acids encoded by the endogenous tRNA bearing the corresponding anti-codon.
HEK293 Cells (ATCC CRL-1573) were plated on 24 well plates and grown to near confluence. The cells were transfected using Lipofectamine 2000 (Invitrogen) with the pMmPylS-mCherry-TAG-EGFP-HA construct and the p4CMVE-U6-PylT construct.^18 After 16 hrs growth with or without 1 mM 3 or with 1 mM 1 the cells were lysed on ice using RIPA buffer (Sigma). The lysates were spun down and the supernatant was added to 4×LDS sample buffer (Life technologies). The samples were run out by SDS-PAGE, transferred to a nitrocellulose membrane and blotted using primary rat anti-HA(clone 3F10, Roche, No. 867 423) and mouse anti-FLAG (clone G191, Abnova, cat. MAB8183), the secondary antibodies were anti-rat (Invitrogen, A11077) and anti-mouse (Cell Signaling Technologies, No. 7076S).

The structures appear in SMILES notation.

The values that follow come from patent publication US10774039B2, “Cyclopropene amino acids and methods” (United Kingdom Research and Innovation, priority 2014, dated 2020).

PylRS/tRNACUA pair, sequence (Q8PWY1 whole entry): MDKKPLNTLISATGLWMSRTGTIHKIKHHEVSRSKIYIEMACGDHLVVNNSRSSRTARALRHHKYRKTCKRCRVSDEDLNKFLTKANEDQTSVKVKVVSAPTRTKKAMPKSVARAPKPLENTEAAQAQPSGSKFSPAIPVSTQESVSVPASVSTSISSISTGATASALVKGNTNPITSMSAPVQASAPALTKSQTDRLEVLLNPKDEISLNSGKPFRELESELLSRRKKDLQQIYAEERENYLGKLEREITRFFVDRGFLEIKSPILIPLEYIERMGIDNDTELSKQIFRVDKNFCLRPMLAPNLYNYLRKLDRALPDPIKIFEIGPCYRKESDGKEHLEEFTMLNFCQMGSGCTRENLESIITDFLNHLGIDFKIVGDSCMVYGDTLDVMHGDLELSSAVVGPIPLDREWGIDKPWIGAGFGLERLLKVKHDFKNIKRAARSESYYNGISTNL

For `CC1=CC1COC(=O)NCCCC[C@H](N)C(=O)O` (stereo partly drawn) [amino acid 3, N^ε-[((2-methylcycloprop-2-en-1-yl)methoxy)carbonyl]-L-lysine], in experiment [1], the “on-protein rate constants of reaction with tetrazines” value came to 27 M⁻¹ s⁻¹. At PylRS/tRNACUA pair, the “full-length mCherry-EGFP-HA protein expression” value is “detected only in the presence”.
